Where two headings read alike, the source gives them in different places.

Usually GI50 stands for the concentration at which growth is held to half of that of the control.

The test system of one experiment is KCL22 B10 (Y253H, 50%). Description: Cytotoxicity assay (resazurin) on KCL22 subclone B10. The class given is cell-based. The note with it: Homo sapiens, KCL-22, read-out: GI50 KCL22 B10 Y253H (50%), 72 h. On the procedure: (§1) Human cell lines KCL22 and BV173 were obtained from the German Collection of Microorganisms and Cell Cultures, K562 and HEK-293T from the European Collection of Authenticated Cell Cultures. KBM5 cell line was kindly gifted by Vladimír Divoký. Development of KCL22 subclones B8 (T315I, 100%), F4 (E255K, 100%), and B10 (Y253H, 50%) was reported previously. All cell lines were cultivated in humidified incubator at 37 °C and in 5% CO2 according to the provider’s instructions in appropriate media supplemented with 10% fetal bovine serum, penicillin (100 IU/mL), streptomycin (100 µg/mL), and glutamine (4 mM).
(§2) Cytotoxicity was determined using resazurin, an indicator dye to measure oxidation-reduction reactions occurring in the mitochondria of live cells. The cells were seeded into 96-well plates and treated with compounds for 72 h (six different doses of each, in triplicate). After treatment, resazurin (Merck, Darmstadt, Germany) solution was added for 4 h, and the fluorescence of formed resorufin corresponding to live cell quantity was measured at 544 nm/590 nm (excitation/emission) using a Fluoroskan Ascent microplate reader (Labsystems, Vantaa, Finland).
A general note: The colour change of resazurin is a common sign of viable cells or microbes.

A further experiment has as its system K562. Description: Cytotoxicity assay (resazurin) on K562. The format is cell-based. The note with it: Homo sapiens, 72 h. On the procedure: as §1, §2
For another experiment, the target named is T1, recombinant Abl1 kinase (Homo sapiens, UniProt P00519).
T1 construct: made in house
Description: Recombinant Abl1 kinase inhibition assay ([γ-33P]ATP, peptide substrate). The class given is biochemical. On the procedure: The reactions were stopped by adding 5 µL of 3% aq. H3PO4. […] H3PO4, and air-dried.

Experiment [1] relates to KCL22 cells containing Bcr-Abl^WT. Description: Cytotoxicity assay (resazurin) on KCL22 WT. The class given is cell-based, human. To be noted: Homo sapiens, KCL-22, 72 h, read-out: GI50 KCL22 WT.
The subject of the next experiment is HEK-293T. Description: Cytotoxicity assay (resazurin) on non-neoplastic HEK-293T. The format is cell-based. The note with it: Homo sapiens, 72 h, non-neoplastic cells. The method, then:
as §1, §2

The next experiment has as its system BV173. Description: Cytotoxicity assay (resazurin) on BV173. The note with it: Homo sapiens, BV-173, 72 h. The format is cell-based. The method, then: as §1, §2
In the next experiment the test system is KCL22 B8 (T315I, 100%). Description: Cytotoxicity assay (resazurin) on KCL22 subclone B8. To be noted: Homo sapiens, KCL-22, read-out: GI50 KCL22 B8 T315I (100%), 72 h. The format is cell-based. On the procedure:
as §1, §2

For a further experiment, the system named is KCL22 F4 (E255K, 100%). Description: Cytotoxicity assay (resazurin) on KCL22 subclone F4. The class given is cell-based. The note with it: Homo sapiens, KCL-22, read-out: GI50 KCL22 F4 E255K (100%), 72 h. The method, then:
as §1, §2

The test system of another experiment is KBM5. Description: Cytotoxicity assay (resazurin) on KBM5. The class given is cell-based. To be noted: Homo sapiens, read-out: GI50 KBM5.
The mark [2] stands for this setting: as listed in Table S1, Bcr-Abl WT, read-out: IC50 (Table S1).
Where [3] appears, read: from the IC50 of Table S1, read-out: pIC50 (Table S1) (converted).
[4] abbreviates: recombinant Abl1, 1 µM ATP, at least three independent experiments, read-out: IC50 Abl.

T1 sequence (P00519 whole entry): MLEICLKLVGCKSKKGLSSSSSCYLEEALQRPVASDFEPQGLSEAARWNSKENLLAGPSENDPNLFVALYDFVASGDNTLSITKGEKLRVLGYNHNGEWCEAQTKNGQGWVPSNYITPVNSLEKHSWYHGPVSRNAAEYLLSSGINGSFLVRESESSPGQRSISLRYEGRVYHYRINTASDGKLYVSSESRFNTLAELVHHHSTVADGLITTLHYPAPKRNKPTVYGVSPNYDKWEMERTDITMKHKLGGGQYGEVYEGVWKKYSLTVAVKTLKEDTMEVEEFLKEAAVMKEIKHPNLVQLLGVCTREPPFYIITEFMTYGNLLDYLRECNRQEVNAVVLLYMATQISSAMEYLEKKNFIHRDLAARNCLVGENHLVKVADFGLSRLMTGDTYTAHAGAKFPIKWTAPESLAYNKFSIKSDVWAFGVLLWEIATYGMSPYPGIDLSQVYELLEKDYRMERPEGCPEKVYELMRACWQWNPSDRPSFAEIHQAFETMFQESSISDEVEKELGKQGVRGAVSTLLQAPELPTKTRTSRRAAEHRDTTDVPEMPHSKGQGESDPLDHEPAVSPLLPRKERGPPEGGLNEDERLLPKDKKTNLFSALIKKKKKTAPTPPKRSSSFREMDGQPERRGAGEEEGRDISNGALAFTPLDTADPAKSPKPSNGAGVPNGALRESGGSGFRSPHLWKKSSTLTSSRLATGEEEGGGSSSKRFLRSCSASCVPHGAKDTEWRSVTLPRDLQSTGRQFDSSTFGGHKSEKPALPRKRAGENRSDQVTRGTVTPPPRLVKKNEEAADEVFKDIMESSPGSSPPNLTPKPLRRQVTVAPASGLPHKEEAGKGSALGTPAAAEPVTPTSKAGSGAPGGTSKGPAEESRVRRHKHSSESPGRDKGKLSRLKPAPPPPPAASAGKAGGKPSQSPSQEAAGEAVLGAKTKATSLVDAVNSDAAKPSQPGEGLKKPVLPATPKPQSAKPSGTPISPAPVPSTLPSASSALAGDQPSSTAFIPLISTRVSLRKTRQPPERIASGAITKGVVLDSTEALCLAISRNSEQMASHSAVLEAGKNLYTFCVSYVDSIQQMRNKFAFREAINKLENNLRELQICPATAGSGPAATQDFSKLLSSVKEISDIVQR

In the case of `CCCCCCn1cnc2c(Nc3ccccc3)nc(Nc3ccc(N4CCN(CCO)CC4)cc3)nc21` [Compound 11g, 2-(4-(4-((9-Hexyl-6-(phenylamino)-9H-purin-2-yl)amino)phenyl)piperazin-1-yl)ethan-1-ol], the GI50 in the experiment on KCL22 B10 (Y253H, 50%) is 7.7 ± 0.2 µM; in the experiment with K562 it was 4.5 ± 1.4 µM; in [1] it was 15.1 ± 2.2 µM; with HEK-293T, 8.6 ± 3.2 µM; in the experiment on BV173, 5.2 ± 0.2 µM; in the experiment on KCL22 B8 (T315I, 100%) it was 10.4 ± 1.8 µM. Further, the GI50 in the experiment on KCL22 F4 (E255K, 100%) turned out to be 8.5 ± 0.9 µM; in the experiment with KBM5 (KBM5, 72 h, resazurin assay), 5.4 ± 0.2 µM. In addition, the IC50 was 0.83 µM at recombinant Abl1 kinase (setting [2]), 0.83 µM at recombinant Abl1 kinase (setting [3]) and 0.834 ± 0.447 µM at recombinant Abl1 kinase (setting [4]).
In the case of `OCCN1CCN(c2ccc(Nc3nc(Nc4ccccc4)c4ncn(CC5CC5)c4n3)cc2)CC1` [Compound 11a, 2-(4-(4-((9-(Cyclopropylmethyl)-6-(phenylamino)-9H-purin-2-yl)amino)phenyl)piperazin-1-yl)ethan-1-ol], the GI50 in the experiment on KCL22 B10 (Y253H, 50%) is 6.3 ± 0.4 µM; with K562, 1.2 ± 0.3 µM; in experiment [1] it was 5.7 ± 0.8 µM; in the experiment on HEK-293T, 9.5 ± 0.7 µM; with BV173 it was 3 ± 0.6 µM; in the experiment with KCL22 B8 (T315I, 100%), greater than 20 µM. The GI50 is 12.7 ± 0.1 µM with KCL22 F4 (E255K, 100%) and 3 ± 0.1 µM in the experiment on KBM5 (KBM5, 72 h, resazurin assay). The IC50 at recombinant Abl1 kinase (setting [3]) is 0.037 µM; at recombinant Abl1 kinase (setting [4]), 0.037 ± 0.012 µM.
For the compound `CCCCCCn1cnc2c(Nc3cccc(F)c3)nc(Nc3ccc(N4CCN(CCO)CC4)cc3)nc21` [Compound 11h, 2-(4-(4-((6-((3-Fluorophenyl)amino)-9-hexyl-9H-purin-2-yl)amino)phenyl)piperazin-1-yl)ethan-1-ol], the GI50 is 5.9 ± 0.7 µM in the experiment on KCL22 B10 (Y253H, 50%); 4.8 ± 0.4 µM in the experiment on K562; 9.6 ± 1 µM in experiment [1]; 6 ± 1 µM with HEK-293T; 5.2 ± 0.5 µM with BV173; 9.5 ± 1.5 µM in the experiment with KCL22 B8 (T315I, 100%). In addition, the GI50 stood at 8.1 ± 1.2 µM with KCL22 F4 (E255K, 100%) and 5.8 ± 0.2 µM with KBM5 (KBM5, 72 h, resazurin assay). In addition, the results for the IC50 at recombinant Abl1 kinase (setting [2]), on recombinant Abl1 kinase (setting [3]) and at recombinant Abl1 kinase (setting [4]) were 0.67 µM, 0.67 µM and 0.674 ± 0.069 µM, respectively.
In the case of `CN1CCN(c2ccc(Nc3nc(Nc4cccc(F)c4)c4ncn(CC5CC5)c4n3)cc2)CC1` [II, reference compound], the GI50 in the experiment with KCL22 B10 (Y253H, 50%) is 8.8 ± 0.4 µM; with K562, 0.8 ± 0.1 µM; in the experiment on HEK-293T, 5.6 ± 0.6 µM; in the experiment on BV173, 5.3 ± 0.2 µM; in the experiment with KCL22 B8 (T315I, 100%), greater than 20 µM; with KCL22 F4 (E255K, 100%) it was greater than 20 µM. Moreover, the 50% growth inhibitory concentration (GI50) with KBM5 (KBM5, 72 h) was determined as 5.1 ± 0.5 µM.
On to `CN1CCN(c2ccc(Nc3nc(Nc4ccccc4)c4ncn(CC5CC5)c4n3)cc2)CC1` [Compound I, reference compound], for which the GI50 with KCL22 B10 (Y253H, 50%) is 5.2 ± 0.2 µM; with K562, 1.5 ± 0.1 µM; with HEK-293T it was 7.5 ± 1.4 µM; in the experiment on BV173, 2.2 ± 0.2 µM; in the experiment with KCL22 B8 (T315I, 100%), 17.3 ± 2 µM; with KCL22 F4 (E255K, 100%), 5.7 ± 0.3 µM. In the experiment on KBM5 (KBM5, 72 h), the GI50 was 2.7 ± 0.1 µM.
On to `Cc1ccc(NC(=O)c2ccc(CN3CCN(C)CC3)cc2)cc1Nc1nccc(-c2cccnc2)n1` [Imatinib, reference compound], for which the GI50 was greater than 20 µM with KCL22 B10 (Y253H, 50%); 0.231 ± 0.001 µM with K562; greater than 10 µM with HEK-293T; 0.199 ± 0.061 µM in the experiment with BV173; greater than 20 µM in the experiment on KCL22 B8 (T315I, 100%); 9.6 ± 0.5 µM with KCL22 F4 (E255K, 100%).
On to `CN1CCN(c2ccc(Nc3nc(Nc4ccc(F)c(F)c4)c4ncn(CC5CC5)c4n3)cc2)CC1` [III, reference compound], for which the GI50 in the experiment with KCL22 B10 (Y253H, 50%) was 3.4 ± 0.4 µM; in the experiment with K562 it was 1.2 ± 0.4 µM; in the experiment on HEK-293T, 5.3 ± 0.3 µM; in the experiment with BV173, 1.4 ± 0.1 µM; with KCL22 B8 (T315I, 100%) it was greater than 20 µM; in the experiment on KCL22 F4 (E255K, 100%) it was greater than 20 µM. In the experiment on KBM5 (KBM5, 72 h), the GI50 worked out at 1.1 ± 0.8 µM.

The record behind these values is paper PMC11125181, “New Inhibitors of Bcr-Abl Based on 2,6,9-Trisubstituted Purine Scaffold Elicit Cytotoxicity in Chronic Myeloid Leukemia-Derived Cell Lines Sensitive and Resistant to TKIs” (Pharmaceutics, 2024).
